pEC50: −log10 of the molar value.
Biological target: T1, ATP-sensitive inward rectifier potassium channel 11 (Homo sapiens, UniProt Q14654)
T1 sequence (Q14654 whole entry): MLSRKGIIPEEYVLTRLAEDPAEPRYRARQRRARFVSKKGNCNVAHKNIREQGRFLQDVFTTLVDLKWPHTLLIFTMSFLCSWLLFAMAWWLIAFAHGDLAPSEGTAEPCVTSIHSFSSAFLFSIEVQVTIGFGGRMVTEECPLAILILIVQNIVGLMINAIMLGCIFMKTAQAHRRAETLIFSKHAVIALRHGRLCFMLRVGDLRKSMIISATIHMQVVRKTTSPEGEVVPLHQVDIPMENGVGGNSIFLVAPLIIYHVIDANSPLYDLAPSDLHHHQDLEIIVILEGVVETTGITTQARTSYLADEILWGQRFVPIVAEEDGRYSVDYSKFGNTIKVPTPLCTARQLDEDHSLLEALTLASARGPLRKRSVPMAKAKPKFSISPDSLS
Experiment: Channel opening activity at human bladder Kir6.2 channel containing SUR2B expressed in L cells by FLIPR assay

pEC50	SMILES
6.27	CC(Cl)(Cl)C(NC(=O)c1ccc(Br)cc1)N/C(=N/C#N)Nc1ccc(Cl)nc1 (stereo unspecified)
5.78	CC(Cl)(Cl)C(NC(=O)c1cccc(Cl)c1)N/C(=N/C#N)Nc1ccc(Cl)nc1 (stereo unspecified)
5.58	CC(Cl)(Cl)C(NC(=O)c1cc(Cl)cc(Cl)c1)N/C(=N/C#N)Nc1cncc(Br)c1 (stereo unspecified)
5.64	CC(Cl)(Cl)C(NC(=O)c1cccc(Cl)c1)N/C(=N/C#N)Nc1ccc(F)nc1 (stereo unspecified)
5.43	CC(Cl)(Cl)C(NC(=O)c1cc(Cl)cc(Cl)c1)N/C(=N/C#N)Nc1ccc(C(F)(F)F)nc1 (stereo unspecified)
5.05	COc1cc(OC)cc(C(=O)NC(N/C(=N/C#N)Nc2ccc(Cl)nc2)C(C)(Cl)Cl)c1 (stereo unspecified)
5.67	CC(Cl)(Cl)[C@H](NC(=O)c1ccc(Cl)cc1)N/C(=N/C#N)Nc1ccc(Cl)nc1
5.27	CC(Cl)(Cl)C(NC(=O)c1cccc(F)c1)N/C(=N/C#N)Nc1ccc(Cl)nc1 (stereo unspecified)
6.05	CC(Cl)(Cl)C(NC(=O)c1ccc(I)cc1)N/C(=N/C#N)Nc1ccc(Cl)nc1 (stereo unspecified)
5.96	CC(Cl)(Cl)C(NC(=O)c1cc(F)cc(F)c1)N/C(=N/C#N)Nc1ccc(Cl)nc1 (stereo unspecified)
5.89	CC(Cl)(Cl)C(NC(=O)c1ccc(F)cc1)N/C(=N/C#N)Nc1ccc(Cl)nc1 (stereo unspecified)
5.77	Cc1cccc(C(=O)NC(N/C(=N/C#N)Nc2ccc(Cl)nc2)C(C)(Cl)Cl)c1 (stereo unspecified)
5.69	CC(Cl)(Cl)C(NC(=O)c1ccccc1)N/C(=N/C#N)Nc1ccc(Cl)nc1 (stereo unspecified)
5.69	CC(Cl)(Cl)C(NC(=O)c1cc(Cl)cc(Cl)c1)N/C(=N/C#N)Nc1ccc(F)nc1 (stereo unspecified)
5.97	CC(Cl)(Cl)[C@@H](NC(=O)c1ccc(Cl)cc1)N/C(=N/C#N)Nc1ccc(Cl)nc1
6.09	CC(Cl)(Cl)C(NC(=O)c1cc(Cl)cc(Cl)c1)N/C(=N/C#N)Nc1ccc(Cl)nc1 (stereo unspecified)
6.04	Cc1ccc(C(=O)NC(N/C(=N/C#N)Nc2ccc(Cl)nc2)C(C)(Cl)Cl)cc1 (stereo unspecified)
6.34	CC(Cl)(Cl)C(NC(=O)c1ccc(Cl)cc1)N/C(=N/C#N)Nc1ccc(Cl)nc1 (stereo unspecified)

More lines, now with the values behind:

SMILES	pEC50
CC(Cl)(Cl)C(NC(=O)c1ccc(F)cc1)N/C(=N/C#N)Nc1cncc(Br)c1 (stereo unspecified)	6.02
CC(Cl)(Cl)C(NC(=O)c1cccc(Cl)c1)N/C(=N/C#N)Nc1cncc(Br)c1 (stereo unspecified)	6.11
CC(Cl)(Cl)C(NC(=O)c1ccc(C(F)(F)F)cc1)N/C(=N/C#N)Nc1ccc(Cl)nc1 (stereo unspecified)	5.30
Cc1cccc(C(=O)NC(N/C(=N/C#N)Nc2cncc(Br)c2)C(C)(Cl)Cl)c1 (stereo unspecified)	5.78
CC(Cl)(Cl)C(NC(=O)c1ccc(F)cc1)N/C(=N/C#N)Nc1ccc(F)nc1 (stereo unspecified)	4.93
CC(Cl)(Cl)C(NC(=O)c1cc(F)cc(F)c1)N/C(=N/C#N)Nc1ccc(C(F)(F)F)nc1 (stereo unspecified)	5.93
Cc1ccc(C(=O)NC(N/C(=N/C#N)Nc2ccc(F)nc2)C(C)(Cl)Cl)cc1 (stereo unspecified)	5.37
CC(Cl)(Cl)C(NC(=O)c1ccc(Cl)cc1)NC(=NC#N)Nc1cccnc1Cl (stereo unspecified)	5.22
CC(Cl)(Cl)C(NC(=O)c1ccc(Cl)cc1)N/C(=N/C#N)Nc1ccc(F)nc1 (stereo unspecified)	5.82
CC(Cl)(Cl)C(NC(=O)c1cc(F)cc(F)c1)N/C(=N/C#N)Nc1ccc(F)nc1 (stereo unspecified)	5.37
COc1ccc(N/C(=N\C#N)NC(NC(=O)c2ccc(Cl)cc2)C(C)(Cl)Cl)cn1 (stereo unspecified)	4.98
Cc1ccc(C(=O)NC(N/C(=N/C#N)Nc2cncc(Br)c2)C(C)(Cl)Cl)cc1 (stereo unspecified)	5.88
CC(Cl)(Cl)C(NC(=O)c1cccs1)N/C(=N/C#N)Nc1cncc(Br)c1 (stereo unspecified)	5.89
CC(Cl)(Cl)[C@@H](NC(=O)c1ccc(Cl)cc1)N/C(=N/C#N)Nc1cccnc1	6.47
COc1cnccc1C(=O)NC(N/C(=N/C#N)Nc1ccc(Cl)nc1)C(C)(Cl)Cl (stereo unspecified)	5.18
CC(Cl)(Cl)C(NC(=O)c1ccc(Cl)cc1)N/C(=N/C#N)Nc1cncc(Br)c1 (stereo unspecified)	6.19
Cc1nc(C(F)(F)F)ccc1N/C(=N\C#N)NC(NC(=O)c1ccc(Cl)cc1)C(C)(Cl)Cl (stereo unspecified)	5.02
CC(Cl)(Cl)C(NC(=O)c1cc(F)cc(F)c1)N/C(=N/C#N)Nc1cncc(Br)c1 (stereo unspecified)	5.96
CC(Cl)(Cl)C(NC(=O)c1cccs1)N/C(=N/C#N)Nc1ccc(Cl)nc1 (stereo unspecified)	5.56

SMILES	pEC50
CC(Cl)(Cl)C(NC(=O)c1ccc(Br)cc1)N/C(=N/C#N)Nc1ccc(C(F)(F)F)nc1 (stereo unspecified)	< 4.00
CC(Cl)(Cl)C(NC(=O)c1ccc(OC(F)(F)F)cc1)N/C(=N/C#N)Nc1ccc(F)nc1 (stereo unspecified)	5.05
Cc1cncc(N/C(=N\C#N)NC(NC(=O)c2ccc(Cl)cc2)C(C)(Cl)Cl)c1 (stereo unspecified)	6.12
CC(Cl)(Cl)C(NC(=O)c1cccs1)N/C(=N/C#N)Nc1ccc(C(F)(F)F)nc1 (stereo unspecified)	5.76
CC(Cl)(Cl)C(NC(=O)c1ccc(F)cc1)N/C(=N/C#N)Nc1ccc(C(F)(F)F)nc1 (stereo unspecified)	5.68
CC(Cl)(Cl)C(NC(=O)c1ccc(OC(F)(F)F)cc1)N/C(=N/C#N)Nc1cncc(Br)c1 (stereo unspecified)	< 4.00
CC(Cl)(Cl)C(NC(=O)c1ccc(C(F)(F)F)cc1)N/C(=N/C#N)Nc1ccc(C(F)(F)F)nc1 (stereo unspecified)	4.57
CC(Cl)(Cl)C(NC(=O)c1ccc(Cl)cc1)N/C(=N/C#N)Nc1ccccc1F (stereo unspecified)	4.92
Cc1cccc(C(=O)NC(N/C(=N/C#N)Nc2ccc(F)nc2)C(C)(Cl)Cl)c1 (stereo unspecified)	5.37
Cc1ccc(N/C(=N\C#N)NC(NC(=O)c2ccc(Cl)cc2)C(C)(Cl)Cl)cn1 (stereo unspecified)	5.65
CC(Cl)(Cl)C(NC(=O)c1ccc(OC(F)(F)F)cc1)N/C(=N/C#N)Nc1ccc(Cl)nc1 (stereo unspecified)	5.27
Cc1cccc(C(=O)NC(N/C(=N/C#N)Nc2ccc(C(F)(F)F)nc2)C(C)(Cl)Cl)c1 (stereo unspecified)	5.59
CC(Cl)(Cl)C(NC(=O)c1cccs1)N/C(=N/C#N)Nc1ccc(F)nc1 (stereo unspecified)	5.34
CC(Cl)(Cl)C(NC(=O)c1cccc(F)c1)N/C(=N/C#N)Nc1ccc(C(F)(F)F)nc1 (stereo unspecified)	5.64
Cc1ccc(C(=O)NC(N/C(=N/C#N)Nc2ccc(C(F)(F)F)nc2)C(C)(Cl)Cl)cc1 (stereo unspecified)	5.42
CC(Cl)(Cl)C(NC(=O)c1ccc(I)cc1)N/C(=N/C#N)Nc1ccc(C(F)(F)F)nc1 (stereo unspecified)	5.11
CC(Cl)(Cl)C(NC(=O)c1ccc(Cl)cc1)N/C(=N/C#N)Nc1ccc(C(F)(F)F)nc1 (stereo unspecified)	5.79
CC(Cl)(Cl)C(NC(=O)c1cccc(Cl)c1)N/C(=N/C#N)Nc1ccc(C(F)(F)F)nc1 (stereo unspecified)	5.17
COc1ncccc1NC(=NC#N)NC(NC(=O)c1ccc(Cl)cc1)C(C)(Cl)Cl (stereo unspecified)	5.01
